The series concerns CCRIS mutagenicity, Ames/micronucleus/aberration tests. The series can be described thus: CCRIS mutagenicity studies.
Setting [1] is: Test System: AMES SALMONELLA TYPHIMURIUM, Strain/Indicator: TA98, Metabolic Activation: NONE, Method: STANDARD PLATE.
Where [2] appears, read: Test System: AMES SALMONELLA TYPHIMURIUM, Strain/Indicator: TA100, Metabolic Activation: NONE, Method: STANDARD PLATE.
Where [3] appears, read: Test System: AMES SALMONELLA TYPHIMURIUM, Strain/Indicator: TA100, Metabolic Activation: RAT, LIVER, S-9, AROCLOR 1254, Method: STANDARD PLATE.
[4] abbreviates: Test System: AMES SALMONELLA TYPHIMURIUM, Strain/Indicator: TA98, Metabolic Activation: NONE, Method: PREINCUBATION
Where [5] appears, read: Test System: AMES SALMONELLA TYPHIMURIUM, Strain/Indicator: TA102, Metabolic Activation: NONE, Method: STANDARD PLATE.

Consider 10 compounds from PubChem BioAssay AID1259407 (Chemical Carcinogenesis Research Information System (CCRIS), 2018).

The structures appear in SMILES notation. Active and inactive are the calls of the source. The rule behind the calls is not given here.

Turning to `c1ccc2c(c1)C1OOC2c2ccccc21`, the mutagenic call under setting [1] is “inactive; negative”, the mutagenic call under setting [2] is “inactive; negative” and the mutagenic call under setting [3] was “inactive; negative”.

Turning to `O=C(O)C(F)(F)C(F)(Cl)C(F)(F)C(F)(Cl)C(F)(F)C(F)(Cl)C(F)(F)Cl` (configuration not stated), the mutagenic call by setting is: under setting [4], “inactive; negative”; (Test System: AMES SALMONELLA TYPHIMURIUM, Strain/Indicator: TA98, Metabolic Activation: RAT, LIVER, S-9, Method: PREINCUBATION) “inactive; negative”; (Test System: AMES SALMONELLA TYPHIMURIUM, Strain/Indicator: TA100, Metabolic Activation: NONE, Method: PREINCUBATION) “inactive; negative”; (Test System: AMES SALMONELLA TYPHIMURIUM, Strain/Indicator: TA100, Metabolic Activation: RAT, LIVER, S-9, Method: PREINCUBATION) “inactive; negative”; (Test System: AMES SALMONELLA TYPHIMURIUM, Strain/Indicator: TA1535, Metabolic Activation: NONE, Method: PREINCUBATION) “inactive; negative”; (Test System: AMES SALMONELLA TYPHIMURIUM, Strain/Indicator: TA1535, Metabolic Activation: RAT, LIVER, S-9, Method: PREINCUBATION) “inactive; negative”. Besides, the mutagenic call is “inactive; negative” (Test System: AMES SALMONELLA TYPHIMURIUM, Strain/Indicator: TA1537, Metabolic Activation: NONE, Method: PREINCUBATION); “inactive; negative” (Test System: AMES SALMONELLA TYPHIMURIUM, Strain/Indicator: TA1537, Metabolic Activation: RAT, LIVER, S-9, Method: PREINCUBATION); “inactive; negative” (Test System: AMES SALMONELLA TYPHIMURIUM, Strain/Indicator: TA1538, Metabolic Activation: NONE, Method: PREINCUBATION); “inactive; negative” (Test System: AMES SALMONELLA TYPHIMURIUM, Strain/Indicator: TA1538, Metabolic Activation: RAT, LIVER, S-9, Method: PREINCUBATION); “inactive; negative” (Test System: CHINESE HAMSTER OVARY, Strain/Indicator: CHO-K1-BH4 (HGPRT), Metabolic Activation: NONE, Method: STANDARD PLATE); “inactive; negative” (Test System: CHINESE HAMSTER OVARY, Strain/Indicator: CHO-K1-BH4 (HGPRT), Metabolic Activation: RAT, LIVER, S-9, Method: STANDARD PLATE). For the same compound, under “Test System: UDS RODENT HEPATOCYTES, Strain/Indicator: THY INCORP (NON-S-PHASE), Metabolic Activation: NONE, Method: AUTORADIOGRAPHY”, the mutagenic call is “inactive; negative”.

As to `CC(C)(C)NC(=O)C=Cc1ccc([N+](=O)[O-])o1`, the mutagenic call under setting [4] was “active; positive”.

For the compound `COc1cc(/C=C/c2ccccc2)oc(=O)c1`, the mutagenic call (Test System: Mouse lymphoma cells, Strain/Indicator: L5178Y ( tk+/tk-), Metabolic Activation: Human, Liver, S-9, Method: Suspension/plate) was “inactive; negative”.

In the case of `C[C@]12CC[C@@H]3c4ccc(OC(=O)c5ccccc5)cc4CC[C@H]3[C@@H]1CC[C@@H]2O`, the mutagenic call (End Point: IN VIVO MICRONUCLEUS, Test System: BONE MARROW POLYCHROMATIC ERYTHROCYTES, Species: RAT, Strain/Sex: ALDERLEY PARK (AP)/FEMALE, Route: SUBCUTANEOUS (TEST MATERIAL SOLVENT: OIL)) was “inactive; negative”.

`C/C=C/C=C/CCCCCCCO`: the mutagenic call under setting [1] is “inactive; negative”; the mutagenic call (Test System: AMES SALMONELLA TYPHIMURIUM, Strain/Indicator: TA98, Metabolic Activation: RAT, LIVER, S-9, Method: STANDARD PLATE) was “inactive; negative”; the mutagenic call under setting [2] was “inactive; negative”; the mutagenic call (Test System: AMES SALMONELLA TYPHIMURIUM, Strain/Indicator: TA100, Metabolic Activation: RAT, LIVER, S-9, Method: STANDARD PLATE) was “inactive; negative”; the mutagenic call under setting [5] was “inactive; negative”; the mutagenic call (Test System: AMES SALMONELLA TYPHIMURIUM, Strain/Indicator: TA102, Metabolic Activation: RAT, LIVER, S-9, Method: STANDARD PLATE) was “inactive; negative”.

Regarding `CCn1cc(C(=O)O)c(=O)c2cc(F)c(N3CCNCC3)nc21`, the mutagenic call was “inactive; negative” (Test System: AMES SALMONELLA TYPHIMURIUM, Strain/Indicator: HISG428, Metabolic Activation: NONE, Method: STANDARD PLATE); “active; positive” (Test System: AMES SALMONELLA TYPHIMURIUM, Strain/Indicator: TA92, Metabolic Activation: NONE, Method: STANDARD PLATE); “active; positive” under setting [5]; “active; positive” (Test System: AMES SALMONELLA TYPHIMURIUM, Strain/Indicator: TA103, Metabolic Activation: NONE, Method: STANDARD PLATE); “inactive; negative” (Test System: AMES SALMONELLA TYPHIMURIUM, Strain/Indicator: TA104, Metabolic Activation: NONE, Method: STANDARD PLATE); “active; positive” (Test System: AMES SALMONELLA TYPHIMURIUM, Strain/Indicator: TA2638, Metabolic Activation: NONE, Method: STANDARD PLATE). Moreover, the mutagenic call was “inactive; negative” (Test System: AMES SALMONELLA TYPHIMURIUM, Strain/Indicator: TA2661, Metabolic Activation: NONE, Method: STANDARD PLATE); “active; positive” (Test System: AMES SALMONELLA TYPHIMURIUM, Strain/Indicator: TA2662, Metabolic Activation: NONE, Method: STANDARD PLATE); “inactive; negative” (Test System: AMES SALMONELLA TYPHIMURIUM, Strain/Indicator: TA2678, Metabolic Activation: NONE, Method: STANDARD PLATE).

For `CC(C)c1c(N)ccc2ccccc12`, the mutagenic call by setting is: under setting [1], “inactive; negative”; (Test System: AMES SALMONELLA TYPHIMURIUM, Strain/Indicator: TA98, Metabolic Activation: RAT LIVER S-9, AROCLOR, Method: STANDARD PLATE) “active; positive”; under setting [2], “inactive; negative”; (Test System: AMES SALMONELLA TYPHIMURIUM, Strain/Indicator: TA100, Metabolic Activation: RAT LIVER S-9, AROCLOR, Method: STANDARD PLATE) “active; positive”.

On to `CNC(=O)/C=C(\C)OP(=O)(OC)OC`, for which the mutagenic call was “active; positive (structural changes and ploidy)” (End Point: In vitro chromosomal aberrations, Test System: Human lymphocytes, Metabolic Activation: None); “inactive; negative” (Test System: AMES SALMONELLA TYPHIMURIUM, Strain/Indicator: TA97A, Metabolic Activation: NONE, Method: STANDARD PLATE); “inactive; negative” (Test System: AMES SALMONELLA TYPHIMURIUM, Strain/Indicator: TA97A, Metabolic Activation: PLANT, HOMOGENATE, S-14, Method: STANDARD PLATE); “inactive; negative” (Test System: AMES SALMONELLA TYPHIMURIUM, Strain/Indicator: TA97A, Metabolic Activation: S-9, Method: STANDARD PLATE); “inactive; negative” under setting [1]; “inactive; negative” (Test System: AMES SALMONELLA TYPHIMURIUM, Strain/Indicator: TA98, Metabolic Activation: PLANT, HOMOGENATE, S-14, Method: STANDARD PLATE). The mutagenic call by setting is: (Test System: AMES SALMONELLA TYPHIMURIUM, Strain/Indicator: TA98, Metabolic Activation: S-9, Method: STANDARD PLATE) “inactive; negative”; under setting [2], “inactive; negative”; (Test System: AMES SALMONELLA TYPHIMURIUM, Strain/Indicator: TA100, Metabolic Activation: PLANT, HOMOGENATE, S-14, Method: STANDARD PLATE) “inactive; negative”; (Test System: AMES SALMONELLA TYPHIMURIUM, Strain/Indicator: TA100, Metabolic Activation: S-9, Method: STANDARD PLATE) “inactive; negative”; (Test System: AMES SALMONELLA TYPHIMURIUM, Strain/Indicator: TA1535, Metabolic Activation: PLANT, HOMOGENATE, S-14, Method: STANDARD PLATE) “inactive; negative”; (Test System: AMES SALMONELLA TYPHIMURIUM, Strain/Indicator: TA1535, Metabolic Activation: S-9, Method: STANDARD PLATE) “inactive; negative”. For the same compound, the mutagenic call (Test System: UDS HUMAN FIBROBLASTS, Strain/Indicator: THY INCORP (NON-S-PHASE), Metabolic Activation: NONE, Method: LIQUID SCINTILLATION COUNTING) is “active; positive”.

Regarding `O=C1CCC2(O)c3c(ccc(O)c31)-c1ccc(O)c3c1C2C1OC1C3=O` (configuration not stated), the mutagenic call is “active; positive” under setting [1]; “active; positive” (Test System: AMES SALMONELLA TYPHIMURIUM, Strain/Indicator: TA98, Metabolic Activation: RAT, LIVER, S-9, AROCLOR 1254, Method: STANDARD PLATE); “active; positive” under setting [2]; “active; positive” under setting [3]; “active; positive” (Test System: AMES SALMONELLA TYPHIMURIUM, Strain/Indicator: TA1537, Metabolic Activation: NONE, Method: STANDARD PLATE); “active; positive” (Test System: AMES SALMONELLA TYPHIMURIUM, Strain/Indicator: TA1537, Metabolic Activation: RAT, LIVER, S-9, AROCLOR 1254, Method: STANDARD PLATE).
